The text below walks through data of US20110264026A1, “Azo Derivatives and Uses Thereof in Phototherapy” (priority 2008, published 2011).

Data set [1] concerns human myeloid leukemia U937 cell line. Kind of data set: Cell viability of tumor cells exposed to photosensitizer and electromagnetic radiation. It counts as cell-based. To be noted: for viability at 13 µM: 13 μM compound; for viability at 25 µM: 25 μM compound; for viability at 6 µM: 6 μM compound. The procedure:
A general procedure is carried out for measuring cell viability upon exposure of tumor cells to the fused ring diaza compound of Formula (FX33) and electromagnetic radiation. The compound of Formula (FX33) has an absorption maxima (λmax) of 334 nm. The cell viability measurements are carried out using human myeloid leukemia U937 cell line by the standard WST-1 assay. In this procedure, U397 Leukemia cells (0.5×10^6) are plated in standard T-25 cell culture flasks, and are exposed to four controls and a series of test conditions corresponding to a range of fused ring diaza compound concentrations, summarized in Table 1.
The compound of formula (FX33) is dissolved in 20 to 30% DMSO at an initial concentration of 2-4 mM and serially diluted to the final desired value such that the amount of DMSO exposed to the cells is below 0.5%. The cells are incubated at 37° C. with various concentrations of the fused ring diaza compound photosensitizer for about 30 minutes prior to exposure to electromagnetic radiation. […] It should be noted that in the present study, the electromagnetic radiation source is not optimized with respect to power and wavelength. The viability of cells is assessed after 24 hours following exposure to electromagnetic radiation. The electromagnetic radiation source is a B-100SP High Intensity Lamp from UVP. Once exposure is complete, cells are processed to determine percent viability using Hank's Balanced Salt Solution (HBSS), Trypan blue stain, and a hemacytometer to count live and dead cells. The number of viable cells is determined and percent viability is determined using:
FIG. 4 provides cell viability results for test conditions wherein cells are exposed to electromagnetic radiation and the compound of formula (FX33) for concentrations of 6 μM, 13 μM and 25 μM. […] Cells are incubated in the absence of the compound of formula (FX33) (0 μM) and with the compound of formula (FX33) at concentrations of 6 μM, 13 μM and 25 μM. The cells are exposed to electromagnetic radiation from a B-100SP High Intensity Lamp for 0, 5, 10, and 20 minutes. […] In the presence of 13 μM of the diaza compound of formula (FX33), cells have about 94% viability with electromagnetic radiation exposure for 5 minutes, about 95% viability with electromagnetic radiation exposure for 10 minutes, and about 58% viability with electromagnetic radiation exposure for 20 minutes. In the presence of 25 μM of the compound of formula (FX33), cells have about 86% viability with electromagnetic radiation exposure for 5 minutes, about 30% viability with electromagnetic radiation exposure for 10 minutes, and about 8% viability with electromagnetic radiation exposure for 20 minutes.

Another data set in a line: Absorption maximum. Format: physicochemical.
Where [2] appears, read: Homo sapiens, U-937, 5 min, electromagnetic radiation exposure 5 minutes.
Where [3] appears, read: Homo sapiens, U-937, 10 min, electromagnetic radiation exposure 10 minutes.
Where [4] appears, read: Homo sapiens, U-937, 20 min, electromagnetic radiation exposure 20 minutes.

As for `COc1cc2c3c(cc(=O)oc3c1OC)NN=C2` [formula (FX33)], the “effect on cell viability (in words)” value in data set [1] (6, 13 and 25 μM, exposure 0, 5, 10 and 20 minutes) is “concentration-dependent and electromagnetic radiation exposure time-dependent decreases in cell viability”. For the same molecule, the viability (in general, the share of living cells, or the viability signal relative to a control) at 13 µM is roughly 94% in data set [1] (setting [2]), roughly 95% in data set [1] (setting [3]) and roughly 58% in data set [1] (setting [4]). The viability at 25 µM in data set [1] (setting [2]) was roughly 86%; in data set [1] (setting [3]), roughly 30%; in data set [1] (setting [4]) it was roughly 8%. Besides, the viability at 6 µM is 100% in data set [1] (setting [3]); roughly 92% in data set [1] (setting [4]); 100% in data set [1] (Homo sapiens, U-937, electromagnetic radiation exposure 5 minutes (B-100SP lamp, 325-425 nm), viability assessed after 24 hours). Further, the IC50 in data set [1] (Homo sapiens, U-937, 20 min, cells exposed to electromagnetic radiation and photosensitizer for 20 minutes, read-out: VC50/20 (concentration at which 50% decrease in cell viability is observed)) was determined as 5.25 µM. The “absorption maxima (λmax)” value in “Absorption maximum” is 334 nm.
